Data: patent publication US11053204B2, “Pyrimidinyloxy benzene derivatives as herbicides” (FMC Corporation, priority 2015, dated 2021)

Key:
Assay type in all cases: in vivo
kochia (Kochia scoparia) [1] = assay: Test A preemergence, visual injury rating; details: 0 to 100 scale (0 no effect, 100 complete control)
From the text: (§1) Seeds of plant species selected from barnyardgrass (Echinochloa crus-galli), kochia (Kochia scoparia), ragweed (common ragweed, Ambrosia elatior), Italian ryegrass (Lolium multiflorum), large (Lg) crabgrass (Digitaria sanguinalis), giant foxtail (Setaria faberii), morningglory (Ipomoea spp.), pigweed (Amaranthus retroflexus), velvetleaf (Abutilon theophrasti), wheat (Triticum aestivum), and corn (Zea mays) were planted into a blend of loam soil and sand and treated preemergence with a directed soil spray using test chemicals formulated in a non-phytotoxic solvent mixture which included a surfactant.
(§2) At the same time, plants selected from these crop and weed species and also blackgrass (Alopecurus myosuroides), and galium (catchweed bedstraw, Galium aparine) were planted in pots containing the same blend of loam soil and sand and treated with postemergence applications of test chemicals formulated in the same manner. Plants ranged in height from 2 to 10 cm and were in the one- to two-leaf stage for the postemergence treatment. Treated plants and untreated controls were maintained in a greenhouse for approximately 10 days, after which time all treated plants were compared to untreated controls and visually evaluated for injury. Plant response ratings, summarized in Table A, are based on a 0 to 100 scale where 0 is no effect and 100 is complete control. A dash (-) response means no test result.

[2] = system: giant foxtail (Setaria faberii); assay: Test A preemergence, visual injury rating; details: 0 to 100 scale (0 no effect, 100 complete control)
From the text: as §1, §2

[3] = system: pigweed (Amaranthus retroflexus); assay: Test A preemergence, visual injury rating; details: 0 to 100 scale (0 no effect, 100 complete control)
From the text: as §1, §2

[4] = system: barnyardgrass (Echinochloa crus-galli); assay: Test A preemergence, visual injury rating; details: 0 to 100 scale (0 no effect, 100 complete control)
From the text: as §1, §2

[5] = system: ragweed (common ragweed, Ambrosia elatior); assay: Test A preemergence, visual injury rating; details: 0 to 100 scale (0 no effect, 100 complete control)
From the text: as §1, §2

[6] = system: Italian ryegrass (Lolium multiflorum); assay: Test A preemergence, visual injury rating; details: 0 to 100 scale (0 no effect, 100 complete control)
From the text: as §1, §2

corn (Zea mays) = assay: Test A postemergence, visual injury rating; details: 0 is no effect, 100 is complete control
From the text: as §1, §2

[7] = system: blackgrass (Alopecurus myosuroides); assay: Test A postemergence, visual injury rating; details: 0 is no effect, 100 is complete control
From the text: as §1, §2

kochia (Kochia scoparia) [8] = assay: Test A postemergence, visual injury rating; details: 0 is no effect, 100 is complete control
From the text: as §1, §2

[9] = system: giant foxtail (Setaria faberii); assay: Test A postemergence, visual injury rating; details: 0 is no effect, 100 is complete control
From the text: as §1, §2

[10] = system: pigweed (Amaranthus retroflexus); assay: Test A postemergence, visual injury rating; details: 0 is no effect, 100 is complete control
From the text: as §1, §2

[11] = system: galium (catchweed bedstraw, Galium aparine); assay: Test A postemergence, visual injury rating; details: 0 is no effect, 100 is complete control
From the text: as §1, §2

[12] = system: wheat (Triticum aestivum); assay: Test A postemergence, visual injury rating; details: 0 is no effect, 100 is complete control
From the text: as §1, §2

[13] = system: barnyardgrass (Echinochloa crus-galli); assay: Test A postemergence, visual injury rating; details: 0 is no effect, 100 is complete control
From the text: as §1, §2

[14] = system: ragweed (common ragweed, Ambrosia elatior); assay: Test A postemergence, visual injury rating; details: 0 is no effect, 100 is complete control
From the text: as §1, §2

[15] = system: Italian ryegrass (Lolium multiflorum); assay: Test A postemergence, visual injury rating; details: 0 is no effect, 100 is complete control
From the text: as §1, §2

Compound | Kochia plant response rating (kochia (Kochia scoparia) [1]; 125 g ai/ha) | Kochia plant response rating (kochia (Kochia scoparia) [1]; 500 g ai/ha) | Foxtail, Giant plant response rating ([2]; 125 g ai/ha) | Foxtail, Giant plant response rating ([2]; 500 g ai/ha) | Pigweed plant response rating ([3]; 125 g ai/ha) | Pigweed plant response rating ([3]; 500 g ai/ha) | Barnyardgrass plant response rating ([4]; 125 g ai/ha) | Barnyardgrass plant response rating ([4]; 500 g ai/ha) | Ragweed plant response rating ([5]; 500 g ai/ha) | Ryegrass, Italian plant response rating ([6]; 500 g ai/ha) | Corn plant response rating (0 to 100 scale) (corn (Zea mays); 500 g ai/ha) | Blackgrass plant response rating (0 to 100 scale) ([7]; 500 g ai/ha) | Kochia plant response rating (0 to 100 scale) (kochia (Kochia scoparia) [8]; 500 g ai/ha) | Foxtail, Giant plant response rating (0 to 100 scale) ([9]; 500 g ai/ha) | Pigweed plant response rating (0 to 100 scale) ([10]; 500 g ai/ha) | Galium plant response rating (0 to 100 scale) ([11]; 500 g ai/ha) | Wheat plant response rating (0 to 100 scale) ([12]; 500 g ai/ha) | Barnyardgrass plant response rating (0 to 100 scale) ([13]; 500 g ai/ha) | Ragweed plant response rating (0 to 100 scale) ([14]; 500 g ai/ha) | Ryegrass, Italian plant response rating (0 to 100 scale) ([15]; 500 g ai/ha) | other results
O=C(OCCC(F)(F)F)c1c(F)cccc1Oc1ncc(Br)cn1 [Compound 41] | 30 | 30 | 0 | 0 | 30 | 40 | 0 | 0 | 80 | 0 | 0 | 0 | 60 | 0 | 90 | 0 | 0 | 0 | 10 | 0 | Ragweed plant response rating ([5]; 125 g ai/ha): 50; Ryegrass, Italian plant response rating ([6]; 125 g ai/ha): 0; Corn plant response rating (0 to 100 scale) (corn (Zea mays); 125 g ai/ha): 0; Blackgrass plant response rating (0 to 100 scale) ([7]; 125 g ai/ha): 0; Kochia plant response rating (0 to 100 scale) (kochia (Kochia scoparia) [8]; 125 g ai/ha): 20; Foxtail, Giant plant response rating (0 to 100 scale) ([9]; 125 g ai/ha): 0; Pigweed plant response rating (0 to 100 scale) ([10]; 125 g ai/ha): 90; Galium plant response rating (0 to 100 scale) ([11]; 125 g ai/ha): 0; Wheat plant response rating (0 to 100 scale) ([12]; 125 g ai/ha): 0; Barnyardgrass plant response rating (0 to 100 scale) ([13]; 125 g ai/ha): 0; Ragweed plant response rating (0 to 100 scale) ([14]; 125 g ai/ha): 0; Ryegrass, Italian plant response rating (0 to 100 scale) ([15]; 125 g ai/ha): 0
CC(C)(C)OC(=O)c1c(Br)cccc1Oc1ncc(Cl)cn1 [Compound 14] |  | 70 |  | 100 |  | 100 |  | 60 | 10 | 20 | 10 | 70 | 70 | 60 | 100 | 100 | 40 | 40 | 0 | 70 | 
N#CCOC(=O)c1c(Br)cccc1Oc1ncc(Cl)cn1 [Compound 40] | 60 | 90 | 20 | 100 | 40 | 100 | 0 | 50 | 0 | 0 | 20 | 20 | 100 | 40 | 100 | 40 | 20 | 20 | 0 | 0 | Ragweed plant response rating ([5]; 125 g ai/ha): 0; Ryegrass, Italian plant response rating ([6]; 125 g ai/ha): 0; Corn plant response rating (0 to 100 scale) (corn (Zea mays); 125 g ai/ha): 20; Blackgrass plant response rating (0 to 100 scale) ([7]; 125 g ai/ha): 10; Kochia plant response rating (0 to 100 scale) (kochia (Kochia scoparia) [8]; 125 g ai/ha): 70; Foxtail, Giant plant response rating (0 to 100 scale) ([9]; 125 g ai/ha): 10; Pigweed plant response rating (0 to 100 scale) ([10]; 125 g ai/ha): 70; Galium plant response rating (0 to 100 scale) ([11]; 125 g ai/ha): 30; Wheat plant response rating (0 to 100 scale) ([12]; 125 g ai/ha): 0; Barnyardgrass plant response rating (0 to 100 scale) ([13]; 125 g ai/ha): 0; Ragweed plant response rating (0 to 100 scale) ([14]; 125 g ai/ha): 0; Ryegrass, Italian plant response rating (0 to 100 scale) ([15]; 125 g ai/ha): 0
N#CCOC(=O)c1c(C#N)cccc1Oc1ncc(Cl)cn1 [Compound 39] | 0 | 0 | 0 | 0 | 0 | 0 | 0 | 0 | 0 | 0 | 0 | 0 | 0 | 0 | 0 | 0 | 0 | 0 | 0 | 0 | Ragweed plant response rating ([5]; 125 g ai/ha): 0; Ryegrass, Italian plant response rating ([6]; 125 g ai/ha): 0; Corn plant response rating (0 to 100 scale) (corn (Zea mays); 125 g ai/ha): 0; Blackgrass plant response rating (0 to 100 scale) ([7]; 125 g ai/ha): 0; Kochia plant response rating (0 to 100 scale) (kochia (Kochia scoparia) [8]; 125 g ai/ha): 0; Foxtail, Giant plant response rating (0 to 100 scale) ([9]; 125 g ai/ha): 0; Pigweed plant response rating (0 to 100 scale) ([10]; 125 g ai/ha): 0; Galium plant response rating (0 to 100 scale) ([11]; 125 g ai/ha): 0; Wheat plant response rating (0 to 100 scale) ([12]; 125 g ai/ha): 0; Barnyardgrass plant response rating (0 to 100 scale) ([13]; 125 g ai/ha): 0; Ragweed plant response rating (0 to 100 scale) ([14]; 125 g ai/ha): 0; Ryegrass, Italian plant response rating (0 to 100 scale) ([15]; 125 g ai/ha): 0
O=C(OCC(F)(F)F)c1c(Br)cccc1Oc1ncc(Br)cn1 [Compound 34] | 20 | 40 | 70 | 100 | 40 | 100 | 0 | 90 | 0 | 0 | 30 | 70 | 90 | 80 | 100 | 100 | 0 | 20 | 0 | 0 | Ragweed plant response rating ([5]; 125 g ai/ha): 0; Ryegrass, Italian plant response rating ([6]; 125 g ai/ha): 0; Corn plant response rating (0 to 100 scale) (corn (Zea mays); 125 g ai/ha): 30; Blackgrass plant response rating (0 to 100 scale) ([7]; 125 g ai/ha): 10; Kochia plant response rating (0 to 100 scale) (kochia (Kochia scoparia) [8]; 125 g ai/ha): 60; Foxtail, Giant plant response rating (0 to 100 scale) ([9]; 125 g ai/ha): 20; Pigweed plant response rating (0 to 100 scale) ([10]; 125 g ai/ha): 100; Galium plant response rating (0 to 100 scale) ([11]; 125 g ai/ha): 50; Wheat plant response rating (0 to 100 scale) ([12]; 125 g ai/ha): 0; Barnyardgrass plant response rating (0 to 100 scale) ([13]; 125 g ai/ha): 0; Ragweed plant response rating (0 to 100 scale) ([14]; 125 g ai/ha): 0; Ryegrass, Italian plant response rating (0 to 100 scale) ([15]; 125 g ai/ha): 0
O=C(OCCC(F)(F)F)c1c(F)cccc1Oc1ncc(Cl)cn1 [Compound 42] | 0 | 0 | 0 | 0 | 0 | 30 | 0 | 0 | 0 | 0 | 30 | 0 | 60 | 0 | 90 | 0 | 0 | 0 | 0 | 0 | Ragweed plant response rating ([5]; 125 g ai/ha): 0; Ryegrass, Italian plant response rating ([6]; 125 g ai/ha): 0; Corn plant response rating (0 to 100 scale) (corn (Zea mays); 125 g ai/ha): 20; Blackgrass plant response rating (0 to 100 scale) ([7]; 125 g ai/ha): 0; Kochia plant response rating (0 to 100 scale) (kochia (Kochia scoparia) [8]; 125 g ai/ha): 30; Foxtail, Giant plant response rating (0 to 100 scale) ([9]; 125 g ai/ha): 0; Pigweed plant response rating (0 to 100 scale) ([10]; 125 g ai/ha): 80; Galium plant response rating (0 to 100 scale) ([11]; 125 g ai/ha): 0; Wheat plant response rating (0 to 100 scale) ([12]; 125 g ai/ha): 0; Barnyardgrass plant response rating (0 to 100 scale) ([13]; 125 g ai/ha): 0; Ragweed plant response rating (0 to 100 scale) ([14]; 125 g ai/ha): 0; Ryegrass, Italian plant response rating (0 to 100 scale) ([15]; 125 g ai/ha): 0
